These results are taken from patent US8193200B2, “Antagonists of A2B adenosine receptors for treatment of inflammatory bowel disease” (University of Virginia Patent Foundation, priority 2007, dated 2012).

One series concerns T84 cells. Put plainly: Flagellin-induced IL-8 secretion in T84 cells (ELISA). It is filed as cell-based.
Series [1] relates to colonic crypt epithelial cells. Kind of series: ki67 proliferation and caspase-3/TUNEL apoptosis staining of colonic crypts, DSS colitis. It is filed as in vivo, mouse. On the procedure: (§1) Apoptosis: Apoptotic cells were determined in colonic crypts of the mice that received ATL-801. Apoptotic cells were identified by fluorescent double staining using caspase-3 and terminal deoxyuridine nick-end labeling (TUNEL) as a secondary method to detect apoptosis. After deparaffinization and hydration, paraffin sections of colon were retrieved for antigens in a pressure cooker with sodium citrate (pH 6.0, 10 mM) for 10 min. After cooling, the sections were quenched in 3% H2O2 in methanol and then blocked with normal goat serum. Caspase-3 was detected with rabbit anti-cleaved-caspase-3 IgG overnight at 4° C. followed by a labeled streptavidin-biotin (LSAB) staining method consisting of successive application of secondary antibody-streptavidin, biotin-horseradish peroxidase, and cyanine-3 tyramide. TUNEL immunohistochemistry was performed using the in situ cell death detection kit, fluorescein, as described by the manufacturer (Roche Applied Science, Indianapolis, Ind.). For IL-10 model, frozen sections were used to stain cleaved caspase 3 and TUNEL. Nuclei were attained by Hoechst to count total crypt cell number. The apoptotic index for both morphologically defined apoptotic cells and fluorescent staining with caspase-3 was calculated as the number of apoptotic cells per crypt. […]

Series [2] relates to IL-10-/- mice with piroxicam induced colitis. Kind of series: Piroxicam induced colitis in IL-10-/- mice: body weight, histological score, colon length. It is filed as in vivo, mouse. The source says: IL-10^−/− mice spontaneously develop a chronic, T-cell mediated, transmural colitis that shares many features with human Crohn's disease. Based on this model, there have been several clinical trials using IL-10 treatment for IBD in human patients 13 However, due to the inconsistency in the development of spontaneous colitis in IL-10^−/− mice, Berg and his colleagues have described rapid development of colitis in IL-10^−/− mice treated with a nonsteroidal anti-inflammatory drug piroxicam (NSAID)^9. Accordingly, mice were treated with piroxicam, 200 mg/kg diet, for two weeks to induce colitis. Mice were administered ATL-801 for a week prior to treatment with piroxicam, and ATL-801 treatment was continued during piroxicam administration. Two weeks after the induction of colitis, mice were euthanized, and colonic tissue was analyzed.
Assessment of body weights, stool consistency, and the presence of occult/gross blood by a guaic test (Hemoccult Sensa; Beckman Coulter, Fullerton, Calif.) were performed daily for each mouse. Colitis was quantified with a clinical and histological score, as described by Cooper, et. al. Clinical score was based on weight loss, stool consistency, and fecal blood (score range 0-12). Histological scoring was performed based on three variables, extent of inflammatory infiltrate, mucosal ulcers and severity of crypt (score range 0-11). IL-10^−/− mouse colon histological scoring (ranging from 0 to 4) was performed as described by Berg, et. al. to assess intestinal lesions and their severity.

In a further series the target is T1, A2b receptor (Homo sapiens, UniProt P29275).
T1 construct: endogenous in cells; host or cells: T84 cells
T1 sequence (P29275 1-332): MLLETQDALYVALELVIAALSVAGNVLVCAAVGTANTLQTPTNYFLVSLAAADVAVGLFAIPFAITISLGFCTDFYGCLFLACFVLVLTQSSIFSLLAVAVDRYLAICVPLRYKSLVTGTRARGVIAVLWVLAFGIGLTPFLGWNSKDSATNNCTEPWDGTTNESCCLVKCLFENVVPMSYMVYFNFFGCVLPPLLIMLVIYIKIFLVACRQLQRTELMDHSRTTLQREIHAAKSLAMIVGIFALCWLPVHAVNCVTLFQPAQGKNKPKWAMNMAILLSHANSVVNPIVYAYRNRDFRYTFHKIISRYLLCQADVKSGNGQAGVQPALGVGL
Put plainly: cAMP measurement in adenosine-stimulated T84 cells. Format: cell-based. The following applies: T84 monolayers, adenosine 100 μM, ATL-801 100 μM; unstimulated 1.7±0.05, adenosine alone 4.7±0.66. On the procedure: T84 cells were stimulated with adenosine (100 μM) or forskolin (10 μM) for 7 min, with or without ATL-801 (100 μM). Total cell lysates were processed in the presence of IBMX (phosphodiesterase inhibitor). cAMP levels were measured in whole cell lysates using a competitive cAMP immunoassay kit (Applied Biosystems, Bedford, Mass.) according to the manufacturer's instructions. Luminescence was read with a Luminoscan Ascent plate reader (Thermo Labsystems, Needham Heights, Mass.).

In series [3] the test system is colonic crypt epithelial cells. Kind of series: ki67 proliferation and TUNEL apoptosis staining, IL-10-/- model. The following applies: IL-10-/- mice, piroxicam+ATL-801. It is filed as in vivo, mouse. On the procedure:
as §1

Another series has as its system A2b receptor expression. Kind of series: Western blot of A2b receptor in colonic lysates, DSS model. Format: in vivo, mouse. The following applies: baseline and after DSS treatment. An excerpt:
Colonic tissue was homogenized and cell lysates were subjected to immunoblotting using anti-A2b receptor antibody (1:1000). β-tubulin was used as loading control. Blot shown is representative of 4 animals per condition.

Series [4] relates to myeloperoxidase (MPO) activity, neutrophil infiltration into colon. Kind of series: Myeloperoxidase assay in colon, DSS colitis. The following applies: DSS 3% 6 days, ATL-801 10 mg/kg in diet. Format: in vivo, mouse. On the procedure:
Neutrophil infiltration into colon was quantified by measuring myeloperoxidase (MPO) activity as described previously. One unit of MPO activity was defined as the amount that degraded 1 μmol of […] per minute at 25° C. The results were expressed as absorbance per μg of protein.

For the compound `CCCn1c(=O)n(C2CC2)c(=O)c2[nH]c(-c3ccc(N(CC)C(=O)c4cccnc4)nc3)nc21` [ATL-801], the “inhibition of flagellin-induced IL-8 secretion” value in the series on T84 cells (ATL-801 100 μM 30 min, then flagellin 100 ng/ml 5 hours) is on record as 60%. Further, in the series on T84 cells (ATL-801 100 μM, flagellin 100 ng/ml 5 h, control 206±18.5, flagellin 1126), the IL-8 in media, Flagellin+ATL-801 came out at 769 ± 13.6 pg/mL. In the series with T84 cells (ATL-801 100 μM, no flagellin, control 206±18.5), this compound gave an IL-8 in media, ATL-801 alone of 101 ± 34.6 pg/mL. Besides, in series [1] (DSS+ATL, average positive cells per crypt, control 18.67±1.62, DSS 5.95±0.31), the “proliferation index, ki67 positive cells” value came to 15.13±0.44. Further, the “TUNEL positive cells out of total number of cells counted in each crypt” value in series [1] (DSS+ATL-801, DSS 16.3±2.3) is given as 3.7±0.7. Further, the “histology, ATL-801 alone” value in series [2] (IL-10-/- mice treated with ATL-801 alone (data not shown)) was “normal histology”. The colon length in series [2] (IL-10-/- mice, ATL-801+piroxicam, piroxicam 7.0±0.25 cm) is listed as 8.4±0.23 cm. Further, the mean histological score in series [2] (IL-10-/- mice, piroxicam + ATL-801, score 0 to 4, piroxicam 2.8±1.0) was 1.3±0.3. In addition, in series [2] (IL-10-/- mice, piroxicam+ATL-801 10 mg/Kg diet, FIG. 8A percent body weight change, piroxicam Δ−2.05±0.7), the “body weight change (Δ)” value is recorded as “+0.2±0.5”. In addition, the “adenosine mediated cAMP levels, adenosine+ATL-801” value at A2b receptor was determined as 0.2±0.06 pmoles/10^6 cells. The “TUNEL positive cells out of total (around 500) number of cells counted in each crypt” value in series [3] (control 4.7±1.5, piroxicam 4.3±2.3) is on record as 10±1.0. Further, in series [3] (control 8.0±0.7, piroxicam alone 28.8±2.8), the “proliferation index, ki67 positive staining” value was 18.5±1.4. Further, the “effect on A2b receptor expression (Western blot)” value in the series on A2b receptor expression was “affected neither baseline level of A2b receptor nor DSS-induced increase in A2b receptor expression”. Moreover, in series [4], the “MPO activity, DSS alone relative to antagonist and DSS” value came out at 5 fold.
